Test results published in patent publication US9023789B2, “Amylin analogs and pharmaceutical compositions thereof” (Novo Nordisk A/S, priority 2012, dated 2015).
≈ marks a conversion by molar mass, not a printed value. Like-named read-outs stand apart in the source and are kept apart here. Numbered stars: 1 amine (or outer) side, 2 acyl side, 3 side chain; on linkers, the order of the positions; unused ones are H or OH. Bridge positions count the residues as written; N and C are the ends. Side chains are listed from the residue outwards. Peptide text beside a SMILES is read from it. * marks the point of attachment. C20 diacid = O=C(O)CCCCCCCCCCCCCCCCCCC(=O)*; γGlu = O=C(O)[C@H](CCC(=O)[*:2])N[*:1]; AEEA = NCCOCCOCC(=O)O

How the values were obtained:
[1] = biological target: T1, human amylin 3(a) receptor (human calcitonin receptor + RAMP-3) in BHK570 cells (Homo sapiens, UniProt O60896+P30988); assay: ASSAY (II)a functional assay, human amylin receptor (CRE luciferase); assay type: cell-based; settings: for EC50: human amylin receptor functional potency, assay (II), read-out: hAmylin-R funct. EC50
T1 construct: expressed in transfected cells
How it was run: (§1)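 BHK cells stably carrying a CRE-luciferase reporter plus calcitonin receptor, or calcitonin receptor with RAMP-3 for the amylin 3(a) receptor, were seeded and kept overnight at 37° C. Compounds were added in assay medium with 10% FBS and 10 mM Hepes, pH 7.4, for 3 hours at 37° C, then luminescence was counted.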

[2] = biological target: T2, human calcitonin (a) receptor in BHK570 cells (Homo sapiens, UniProt P30988); assay: ASSAY (II)a functional assay, human calcitonin receptor (CRE luciferase); assay type: cell-based; settings: read-out: hCTR funct. EC50
T2 construct: expressed in transfected cells
T2 sequence (P30988 25-474): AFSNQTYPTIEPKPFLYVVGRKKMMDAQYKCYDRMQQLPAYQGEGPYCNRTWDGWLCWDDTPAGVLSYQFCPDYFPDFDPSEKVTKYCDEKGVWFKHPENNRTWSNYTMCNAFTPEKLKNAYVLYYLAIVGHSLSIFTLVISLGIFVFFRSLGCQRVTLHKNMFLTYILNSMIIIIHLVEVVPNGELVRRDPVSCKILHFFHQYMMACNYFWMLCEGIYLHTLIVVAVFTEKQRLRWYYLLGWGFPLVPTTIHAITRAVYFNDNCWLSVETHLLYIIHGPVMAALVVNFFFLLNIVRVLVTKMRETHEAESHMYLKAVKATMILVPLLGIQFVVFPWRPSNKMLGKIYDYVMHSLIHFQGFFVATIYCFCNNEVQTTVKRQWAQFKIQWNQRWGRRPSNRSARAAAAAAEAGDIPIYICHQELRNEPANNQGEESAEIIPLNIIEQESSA
How it was run: as §1

[3] = ASSAY (IV) determination of solubility; assay type: physicochemical
How it was run: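 Polypeptide stock in water ([…]) was mixed 1:1 with 100 mM buffers: glycylglycine at pH 3.0, 4.0, 5.0 and bistrispropane at pH 6.0, 6.5, 7.0, 7.5, 8.0. After 18 hours at room temperature, samples were centrifuged and polypeptide concentration measured by UPLC.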

[4] = biological target: T3, human amylin receptor (membranes from Amylin 3(a)/CRE-luc cells) (Homo sapiens, UniProt O60896+P30988); assay: ASSAY (V) binding to the human amylin receptor (SPA, 125I-rat amylin); settings: for IC50: Table 4, read-out: hAmylin-R bind IC50;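 for all read-outs here: competition binding of cell membranes (35 ng/µL) mixed with SPA beads in 384-well plates at 40 µL total volume, read by scintillation counting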
T3 construct: expressed in transfected cells
T3 sequence (P30988 25-474): T2 sequence (P30988 25-474)
T3 sequence (O60896 24-148 partner): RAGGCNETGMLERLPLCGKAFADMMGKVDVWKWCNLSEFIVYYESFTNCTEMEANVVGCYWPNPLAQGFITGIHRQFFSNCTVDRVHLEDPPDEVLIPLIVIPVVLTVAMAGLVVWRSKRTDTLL

[5] = biological target: T4, human calcitonin receptor (Homo sapiens, UniProt P30988); assay: ASSAY (VII) binding to the human calcitonin receptor (SPA, 125I-Calcitonin); settings: read-out: hCTR bind IC50;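 note: cell membranes (35 ng/µL) combined with SPA beads in 40 µL of pH 7.4 Hepes buffer, 384-well format, signal counted on a TopCounter instrument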
T4 construct: expressed in transfected cells
T4 sequence (P30988 25-474): T2 sequence (P30988 25-474)

[6] = hCTR funct. EC50 divided by hAmylin-R funct. EC50
[7] = hCTR funct. EC50 over hAmylin-R funct. EC50
[8] = human functional selectivity: hCTR funct. EC50 / hAmylin-R funct. EC50
[9] = bistrispropane buffer, pH 6.5, read-out: Solubility pH 6.5 Concentration
[10] = bistrispropane buffer, pH 7.5, read-out: Solubility pH 7.5 Concentration
[11] = bistrispropane buffer, pH 6.0, read-out: Solubility pH 6.0 Concentration
[12] = bistrispropane buffer, pH 7.0, read-out: Solubility pH 7.0 Concentration
[13] = bistrispropane buffer, pH 8.0, read-out: Solubility pH 8.0 Concentration
[14] = glycylglycine buffer, pH 3.0, read-out: Solubility pH 3.0 Concentration
[15] = glycylglycine buffer, pH 4.0, read-out: Solubility pH 4.0 Concentration
[16] = glycylglycine buffer, pH 5.0, read-out: Solubility pH 5.0 Concentration
[17] = Table 5, selectivity, hCTR bind IC50 / hAmylin-R bind IC50
[18] = Table 5a, selectivity, hCTR bind IC50 / hAmylin-R bind IC50
[19] = Table 5b, selectivity, hCTR bind IC50 / hAmylin-R bind IC50
[20] = Table 5c, selectivity, hCTR bind IC50 / hAmylin-R bind IC50
[21] = Table 7, human binding selectivity, included for comparison
[22] = Table 7a (preferred compounds), human binding selectivity, included for comparison
[23] = ratio of human calcitonin receptor binding IC50 to human amylin receptor binding IC50

Structure (SMILES)	Ratio hCT/hAmylin funct. [1, 6]	Ratio hCT/hAmylin funct. [1, 7]	EC50 [1] [nM]	Ratio hCT/hAmylin funct. [1, 8]	EC50 [2] [nM]	solubility at 18 h [3, 9] [µM]	solubility at 18 h [3, 10] [µM]	solubility at 18 h [3, 11] [µM]	solubility at 18 h [3, 12] [µM]	solubility at 18 h [3, 13] [µM]	solubility at 18 h [3, 14] [µM]	solubility at 18 h [3, 15] [µM]	solubility at 18 h [3, 16] [µM]	IC50 [4] [nM]	Ratio hCT/hAmylin binding [4, 17]	Ratio hCT/hAmylin binding [4, 18]	Ratio hCT/hAmylin binding [4, 19]	Ratio hCT/hAmylin binding [4, 20]	Ratio hCT/hAmylin binding [4, 21]	Ratio hCT/hAmylin binding [4, 22]	further results
CC[C@H](C)[C@H](NC(=O)[C@H](C)NC(=O)CNC(=O)[C@H](Cc1ccccc1)NC(=O)[C@H](CC(N)=O)NC(=O)[C@@H]1CCCN1C(=O)[C@H](CO)NC(=O)[C@H](CO)NC(=O)[C@H](Cc1c[nH]cn1)NC(=O)[C@H](CCCNC(=N)N)NC(=O)[C@H](CC(C)C)NC(=O)[C@H](Cc1ccccc1)NC(=O)[C@H](Cc1c[nH]cn1)NC(=O)[C@H](C)NC(=O)[C@H](CC(C)C)NC(=O)[C@H](CCCNC(=N)N)NC(=O)[C@H](CCC(N)=O)NC(=O)[C@@H](NC(=O)[C@H](C)NC(=O)[C@@H]1CSSC[C@H](NC(=O)[C@@H](N)CCCCNC(=O)CC[C@H](NC(=O)CCCCCCCCCCCCCCCCCCC(=O)O)C(=O)O)C(=O)N[C@@H](CC(N)=O)C(=O)N[C@@H]([C@@H](C)O)C(=O)N[C@@H](C)C(=O)N[C@@H]([C@@H](C)O)C(=O)N1)[C@@H](C)O)C(=O)N1CCC[C@H]1C(=O)N[C@@H](CO)C(=O)N[C@@H](CO)C(=O)N[C@H](C(=O)N[C@@H](CC(N)=O)C(=O)N[C@H](C(=O)NCC(=O)N[C@@H](CO)C(=O)N[C@@H](CC(N)=O)C(=O)N[C@H](C(=O)N[C@@H](Cc1ccc(O)cc1)C(N)=O)[C@@H](C)O)C(C)C)[C@@H](C)O [Example 70] (H-K([γGlu-C20 diacid])CNTATCATQRLAHFLRHSSPNFGAIPSSTNVGSNTY-NH2; disulfide 2-7; N-terminus assumed)	17.9	17.9	0.04	17.9	0.715	≥ 200	≥ 200	≥ 200	≥ 200	≥ 200	≥ 200	≥ 200	≥ 200	0.169	60.8	60.8	60.8	60.8	60.8	60.8	Ratio hCT/hAmylin binding [4, 23]: 60.8; IC50 [5]: 10.3 nM
CC[C@H](C)[C@H](NC(=O)[C@H](C)NC(=O)CNC(=O)[C@H](Cc1ccccc1)NC(=O)[C@H](CC(N)=O)NC(=O)[C@@H]1CCCN1C(=O)[C@H](CO)NC(=O)[C@H](CO)NC(=O)[C@H](Cc1c[nH]cn1)NC(=O)[C@H](CCCNC(=N)N)NC(=O)[C@H](CC(C)C)NC(=O)[C@H](Cc1ccccc1)NC(=O)[C@H](C)NC(=O)[C@H](C)NC(=O)[C@H](CC(C)C)NC(=O)[C@H](CCCNC(=N)N)NC(=O)[C@H](CCC(N)=O)NC(=O)[C@@H](NC(=O)[C@H](C)NC(=O)[C@@H]1CSSC[C@H](NC(=O)[C@@H](N)CCCCNC(=O)COCCOCCNC(=O)CC[C@H](NC(=O)CCCCCCCCCCCCCCCCCCC(=O)O)C(=O)O)C(=O)N[C@@H](CC(N)=O)C(=O)N[C@@H]([C@@H](C)O)C(=O)N[C@@H](C)C(=O)N[C@@H]([C@@H](C)O)C(=O)N1)[C@@H](C)O)C(=O)N1CCC[C@H]1C(=O)N[C@@H](CO)C(=O)N[C@@H](CO)C(=O)N[C@H](C(=O)N1CCC[C@H]1C(=O)N[C@H](C(=O)NCC(=O)N[C@@H](CO)C(=O)N[C@@H](CC(N)=O)C(=O)N[C@H](C(=O)N[C@@H](Cc1ccc(O)cc1)C(N)=O)[C@@H](C)O)C(C)C)[C@@H](C)O [Example 72] (H-K([AEEA-γGlu-C20 diacid])CNTATCATQRLAAFLRHSSPNFGAIPSSTPVGSNTY-NH2; disulfide 2-7 (inferred); N-terminus assumed)	44.9	44.9	0.106	44.9	4.76	≥ 200	≥ 200	≥ 200	≥ 200	194 (≈ 866 µg/mL)	≥ 200	≥ 200	≥ 200	0.172	246.6	246.6	246.6	246.6	246.6	246.6	Ratio hCT/hAmylin binding [4, 23]: 246.6; IC50 [5]: 42.4 nM
CC[C@H](C)[C@H](NC(=O)[C@H](C)NC(=O)CNC(=O)[C@H](Cc1ccccc1)NC(=O)[C@H](CC(N)=O)NC(=O)[C@@H]1CCCN1C(=O)[C@H](CO)NC(=O)[C@H](CO)NC(=O)[C@H](Cc1c[nH]cn1)NC(=O)[C@H](CCCNC(=N)N)NC(=O)[C@H](CC(C)C)NC(=O)[C@H](Cc1ccccc1)NC(=O)[C@@H](NC(=O)[C@H](C)NC(=O)[C@H](CC(C)C)NC(=O)[C@H](CCCNC(=N)N)NC(=O)[C@H](CCC(N)=O)NC(=O)[C@@H](NC(=O)[C@H](C)NC(=O)[C@@H]1CSSC[C@H](NC(=O)[C@@H](N)CCCCNC(=O)COCCOCCNC(=O)CC[C@H](NC(=O)CCCCCCCCCCCCCCCCCCC(=O)O)C(=O)O)C(=O)N[C@@H](CC(N)=O)C(=O)N[C@@H]([C@@H](C)O)C(=O)N[C@@H](C)C(=O)N[C@@H]([C@@H](C)O)C(=O)N1)[C@@H](C)O)[C@@H](C)O)C(=O)N1CCC[C@H]1C(=O)N[C@@H](CO)C(=O)N[C@@H](CO)C(=O)N[C@H](C(=O)N1CCC[C@H]1C(=O)N[C@H](C(=O)NCC(=O)N[C@@H](CO)C(=O)N[C@@H](CC(N)=O)C(=O)N[C@H](C(=O)N[C@@H](Cc1ccc(O)cc1)C(N)=O)[C@@H](C)O)C(C)C)[C@@H](C)O [Example 75] (H-K([AEEA-γGlu-C20 diacid])CNTATCATQRLATFLRHSSPNFGAIPSSTPVGSNTY-NH2; disulfide 2-7 (inferred); N-terminus assumed)	30.6	30.6	0.296	30.6	9.07	≥ 200	193 (≈ 868 µg/mL)	≥ 200	≥ 200	150 (≈ 674 µg/mL)	≥ 200	≥ 200	≥ 200	0.666	91.4	91.4	91.4	91.4	91.4	91.4	Ratio hCT/hAmylin binding [4, 23]: 91.4; IC50 [5]: 60.9 nM
